Several values for one entry are separate records, joined by “and”; a condition that tells them apart may be missing. Equal values may be shown once. Entries after “also recorded” stand apart in the source; their conditions may differ. Where a name gives a salt, the structure may show the parent alone. Read-outs that look alike come from different tables or passages of the source. Where a SMILES comes first, the peptide text is derived from it.
Experiments:
L-carnitine amidase [1] = test: Substrate spectrum of L-carnitine amidase; type: biochemical, strain DSM 6230; conditions: substrate 50 mM; 30° C.; 100 mM potassium phosphate buffer pH 8
Method: The enzyme test was carried out at 30° C. in 100 mM potassium phosphate buffer pH 8. The substrate concentration was 50 mM.

L-carnitine amidase [2] = test: Test for the induction of L-carnitine amidase; type: cell-based, strain DSM 6230; conditions: for Induction of L-carnitine amidase (in words): strain DSM 6230; for Activity (mU/mg) / Activity (mU/ml): 5 g/l of the substance as inductor, 36 h, L-carnitine amide as substrate
Method: (§1) In this test, various substances were examined for their induction action. At the same time, the growth on these compounds was followed. The medium used was a minimum medium with 1.0 g/l instead of 0.5 g/l yeast extract, to which 5 g/l of the substance to be tested were added in each instance. The culture without inductor contained 5 g/l yeast extract. All tests were carried out with 20 ml shaking cultures which were incubated 36 h at 30° C. and 120 rpms in a rotating [round]shaking machine. These cultures were inoculated with 1% of an initial culture of strain DSM 6230. L-carnitine amide was used as substrate for the enzyme test.
(§2) At the same time, the growth of the bacteria was followed in these carnitine amide concentrations. The culture conditions corresponded to those in example 3.

L-carnitine amidase [3] = tested on: L-carnitine amidase;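 also: additives put into the enzyme mixture before substrate, reaction then initiated by substrate addition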
Method: In order to test the influence of various additives on the enzyme activity, they were added to the test batches without substrate in a final concentration of 1 mM and 10 mM in each instance. The reaction batches were first incubated for 45 min. at 30° C. before the reaction was started by adding substrate solution.

strain DSM 6230 = test: Growth of strain DSM 6230 on the test substances (OD660); type: cell-based; conditions: for OD660: 5 g/l of the substance in minimum medium with 1.0 g/l yeast extract, 36 h, 30° C.
Method: 1367 strains were isolated during the screening program. These strains were incubated in 100 ml Erlenmeyer flasks containing 20 ml of the particular enrichment medium in a rotary agitator at 30° C. and 120 rpms. The optical density at 660 nm was taken as an indication for the cell growth.
as §1, §2

[4] = additive 1 mM, 45 min. preincubation at 30° C.
[5] = additive 10 mM, 45 min. preincubation at 30° C.

## N=C(N)NCCC[C@H](N)C(N)=O [L-Arg-NH2]
L-carnitine amidase [1]
  Rel. activity (%): 0%

## NC(=O)C[C@H](N)C(N)=O [L-Asn-NH2]
L-carnitine amidase [1]
  Rel. activity (%): 0%

## NC(=O)[C@H](Cc1ccccc1)NC(=O)[C@@H](N)CC(=O)O [L-Asp-L-Phe-NH2] (H-Asp-Phe-NH2)
L-carnitine amidase [1]
  Rel. activity (%): 0%

## NC(=O)[C@@H](N)Cc1c[nH]cn1 [L-His-NH2]
L-carnitine amidase [1]
  Rel. activity (%): 0%

## CC[C@H](C)[C@H](N)C(N)=O [L-Ile-NH2]
L-carnitine amidase [1]
  Rel. activity (%): 0%

## CSCC[C@H](N)C(N)=O [L-Met-NH2]
L-carnitine amidase [1]
  Rel. activity (%): 0%

## NC(=O)[C@@H](N)CO [L-Ser-NH2]
L-carnitine amidase [1]
  Rel. activity (%): 0%

## NC(=O)[C@@H](N)Cc1c[nH]c2ccccc12 [L-Trp-NH2]
L-carnitine amidase [1]
  Rel. activity (%): 0%

## NC(=O)CNC(=O)[C@@H](N)Cc1ccc(O)cc1 [L-Tyr-Gly-NH2]
L-carnitine amidase [1]
  Rel. activity (%): 0%

## NC(=O)[C@@H](N)Cc1ccc(O)cc1 [L-Tyr-NH2]
L-carnitine amidase [1]
  Rel. activity (%): 0%

## CC(C)[C@H](N)C(=O)N[C@@H](Cc1ccccc1)C(N)=O [L-Val-L-Phe-NH2] (H-Val-Phe-NH2)
L-carnitine amidase [1]
  Rel. activity (%): 0%

## C[N+](C)(C)C[C@H](O)CC(=O)[O-] [L-carnitine, 3-hydroxy-4-trimethylaminobutyrate]
L-carnitine amidase [2]
  Induction of L-carnitine amidase (in words): induced; also recorded: Inductors

## CC(C)CC(N)C(N)=O (stereo not shown) [Leu-NH2]
L-carnitine amidase [1]
  Rel. activity (%): 0%

## [Cl-].[Cl-].[Mg+2] [MgCl2]
L-carnitine amidase [3]; [4]
  Enzyme activity (%): 96%
L-carnitine amidase [3]; [5]
  Enzyme activity (%): 88%

## [Cl][Mn][Cl] [MnCl2]
L-carnitine amidase [3]; [4]
  Enzyme activity (%): 89%
L-carnitine amidase [3]; [5]
  Enzyme activity (%): 76%
L-carnitine amidase [3]; concentration of 10 mM
  Reduction of the enzyme activity (in words): reduction of the enzyme activity

## Cc1ccc(S(=O)(=O)N[C@@H](CCCCN)C(=O)CCl)cc1 [Na-tosyl-L-lysyl-chloromethane hydrochloride]
L-carnitine amidase [3]; [4]
  Enzyme activity (%): 84%
L-carnitine amidase [3]; [5]
  Enzyme activity (%): 73%
L-carnitine amidase [3]; concentration of 10 mM
  Reduction of the enzyme activity (in words): reduction of the enzyme activity

## [F-].[Na+] [NaF]
L-carnitine amidase [3]; [4]
  Enzyme activity (%): 88%
L-carnitine amidase [3]; [5]
  Enzyme activity (%): 78%
L-carnitine amidase [3]; concentration of 10 mM
  Reduction of the enzyme activity (in words): reduction of the enzyme activity

## [N-]=[N+]=[N-].[Na+] [NaN3]
L-carnitine amidase [3]; [4]
  Enzyme activity (%): 85%
L-carnitine amidase [3]; [5]
  Enzyme activity (%): 82%

## CN(C)C(=O)Oc1cccc([N+](C)(C)C)c1 [Neostigmine bromide]
L-carnitine amidase [3]; [4]
  Enzyme activity (%): 100%
L-carnitine amidase [3]; [5]
  Enzyme activity (%): 94%

## [Cl][Ni][Cl] [NiCl2]
L-carnitine amidase [3]; [4]
  Enzyme activity (%): 80%
L-carnitine amidase [3]; [5]
  Enzyme activity (%): 79%

## NC(=O)c1cccnc1 [Nicotinamide]
Strain DSM 6230
  OD660: 0.7
L-carnitine amidase [2]
  Activity (mU/mg): 28 mU/mg
  Activity (mU/ml): 55 mU/ml

## Cl.N=C(N)c1ccc(N)cc1 [Para-amino benzamidine hydrochloride]
L-carnitine amidase [3]; [4]
  Enzyme activity (%): 88%
L-carnitine amidase [3]; [5]
  Enzyme activity (%): 99%

## O=C(O)c1cc[c]([Hg][OH])cc1 [Para-hydroxymercuribenzoate]
L-carnitine amidase [3]; [4]
  Enzyme activity (%): 51%

## c1cnc2c(c1)ccc1cccnc12 [Phenanthroline]
L-carnitine amidase [3]; [4]
  Enzyme activity (%): 89%
L-carnitine amidase [3]; [5]
  Enzyme activity (%): 82%

## O=S(=O)(F)Cc1ccccc1 [Phenylmethane sulfonylfluoride (PMSF), Phenylmethane sulfonylfluoride]
L-carnitine amidase [3]; [4]
  Enzyme activity (%): 23%
L-carnitine amidase [3]; [5]
  Enzyme activity (%): 2%

## N[C@@H](CCC(=O)N[C@@H](CS)C(=O)NCC(=O)O)C(=O)O [Red. glutathione]
L-carnitine amidase [3]
  Enzyme activity (%): 97% and 92%
  Reduction of the enzyme activity (in words): reduction of the enzyme activity

## O=C(O)CN(CCN(CC(=O)O)CC(=O)O)CC(=O)O [Titriplex III (EDTA)]
L-carnitine amidase [3]
  Enzyme activity (%): 93% and 73%
  Reduction of the enzyme activity (in words): reduction of the enzyme activity

## [Cl-].[Cl-].[Zn+2] [ZnCl2]
L-carnitine amidase [3]; [4]
  Enzyme activity (%): 6%

## C[N+](C)(C)CCCC(=O)[O-] [butyrobetaine, γ-butyrobetaine]
Strain DSM 6230
  OD660: 0.7
Strain DSM 6230; strain DSM 6230
  Growth of the strain on the substance (in words): can not be metabolized or are metabolized very poorly
L-carnitine amidase [2]
  Activity (mU/mg): 566 mU/mg
  Activity (mU/ml): 963 mU/ml
  Induction of L-carnitine amidase (in words): induced; also recorded: Inductors; also recorded: induce the enzyme

## CC(C)CC(=O)C(=O)O [α-ketoisocaproic acid]
L-carnitine amidase [3]; [4]
  Enzyme activity (%): 92%
L-carnitine amidase [3]; [5]
  Enzyme activity (%): 90%
